Reference: patent publication US20230365632A1, “A GROUP OF PEPTIDE DERIVATIVE OMICSYNINS WITH ANTIVIRAL ACTIVITY AND USES THEREOF” (INSTITUTE OF MEDICINAL BIOTECHNOLOGY CHINESE ACADEMY OF …, priority 2020, published 2023)
Converted amounts (≈) assume the structure as drawn. “And” between values parts separate entries of the source, which are not always exact repeats. Equal values may be shown once. Read-outs that look alike come from different tables or passages of the source. *1 amine or outer side, *2 acyl side, *3 side chain or, on linkers, in order; H or OH if unused. Where a SMILES comes first, the peptide text is derived from it. [ ]: non-standard residue; d: D form. Phe(ol) = N[CH](CO)Cc1ccccc1; CO = O=C([*:1])[*:2]

Tests used:
[1] = tested on: influenza virus A/wuhan/359/95 (H3N2); test: organism not typed; format: cell-based
coronavirus HCoV-229E = test: CPE inhibition assay against HCoV-229E in Huh7.5 cells; format: cell-based
in vitro [2] = details: dog
in vitro [3] = details: human
coronavirus HCoV-OC43 = test: qRT-PCR of HCoV-OC43 N protein mRNA in C3A cells; format: cell-based; details: 24 hours, corrected for GAPDH, read-out: IC50 for inhibitory activity of coronavirus HCoV-OC43
[4] = tested on: Madin-Darby canine kidney cells (MDCK)
Huh7.5 cells = test: 50% toxicity concentration (TC50) by CPE assay in Huh7.5 cells; details: read-out: TC50, Table 10
[5] = tested on: influenza virus A/Fort Monmouth/1/47 (H1N1); test: organism not typed; format: cell-based; details: MDCK, read-out: A/Fort Monmouth/1/47(H1N1) IC50
[6] = MDCK, read-out: A/Wuhan/359/1995 (H3N2) IC50
[7] = Human coronavirus 229E, Huh7.5, read-out: HCoV-229E IC50

With `CC(C)C(NC(=O)C(CCCNC(=N)N)NC(=O)NC(Cc1ccccc1)C(=O)O)C(=O)NC(CO)Cc1ccccc1` (stereo not drawn) [Omicsynin A3, Chymostatinol A] ({Phe-CO}-Arg-Val-[Phe(ol)]; configuration not given here) the IC50 [1, 6] was 87.9 ± 23.7 µM, the IC50 (coronavirus HCoV-229E; [7]) was 57.4 ± 15.6 µM and the CC50 (in vitro [2]) was > 336 µM. The CC50 (in vitro [3]) was > 168 µM.
Compound `CC(C)[C@H](NC(=O)[C@H](CCCNC(=N)N)NC(=O)N[C@@H](Cc1ccccc1)C(=O)O)C(=O)N[C@H](C=O)CCCNC(=N)N` [Omicsynin B4, Antipain] ({Phe-CO}-Arg-Val-Arg-aldehyde) has an IC50 ([1]; Table 9; CPE method; mean ± SD, three repeats; read-out: A/Wuhan/359/1995 (H3N2) IC50) of 2.43 ± 0.71 µM, an IC50 (coronavirus HCoV-229E; Table 10, Huh7.5 cells, 100 TCID50, read-out: HCoV-229E IC50) of 0.89 ± 0.22 µM and an IC50 (coronavirus HCoV-OC43) of 28.7 µM. For the same compound, the CC50 ([4]; read-out: TC50, Table 9, CPE method) was > 331 µM and the CC50 (Huh7.5 cells) was > 165 µM.
With `CCOC(=O)C1=C[C@@H](OC(CC)CC)[C@H](NC(C)=O)[C@@H](N)C1` [Oseltamivir Phosphate] the IC50 ([1]; MDCK, Table 5; HP20 eluates and positive drugs; read-out: A/Wuhan/359/1995 (H3N2) IC50) was 2.01 µg/mL and the TC50 ([4]; Table 5, HP20 eluates and positive drugs) was 577.35 µg/mL.
`CCOC(=O)C1=C[C@@H](OC(CC)CC)[C@H](NC(C)=O)[C@@H](N)C1` [Oseltamivir] showed an IC50 ([1]; MDCK, Table 1; positive drug; read-out: A/wuhan/359/95(H3N2) IC50) of 1.63 µg/mL, an IC50 ([1]; MDCK, Table 3; positive drug; read-out: A/Wuhan/359/1995 (H3N2) IC50) of 2.01 µg/mL and an IC50 ([1]; MDCK, Table 4; positive drug; read-out: A/Wuhan/359/1995 (H3N2) IC50) of 1.77 µg/mL. The IC50 ([1]; MDCK; Table 2; positive drugs; read-out: A/wuhan/359/95(H3N2) IC50) was 1.63 µg/mL, the IC50 ([1]; MDCK; read-out: A/Wuhan/359/1995 (H3N2) IC50) was 2.47 µg/mL and the IC50 ([5]; Table 2, positive drugs) was 2.01 µg/mL (≈ 6.43 µM). The TC50 ([4]; Table 1, positive drug) was 1260 µg/mL (≈ 4030 µM), the TC50 ([4]; Table 2, positive drugs) was 1260 µg/mL (≈ 4030 µM) and the TC50 ([4]; Table 3, positive drug) was 577.4 µg/mL (≈ 1850 µM). For the same compound, the TC50 ([4]; Table 4, positive drug) was >1000 µg/mL and the TC50 ([4]; Table 6, 50E-C18 components and positive drugs) was 577.35 µg/mL (≈ 1850 µM).
In the case of `NC(=O)c1ncn([C@@H]2O[C@H](CO)[C@@H](O)[C@H]2O)n1` [RBV, ribavirin], the IC50 [1, 6] is reported as 2.47 µg/mL and 13.2 µM, the IC50 ([1]; MDCK, read-out: A/wuhan/359/95(H3N2) IC50) is reported as 1.63 µg/mL and the IC50 [5] is reported as 0.82 µg/mL (≈ 3.36 µM). For the same compound, the IC50 (coronavirus HCoV-229E; [7]) was 25.1 ± 6.1 µM, the CC50 (in vitro [2]) was > 819 µM and the CC50 (in vitro [3]) was > 410 µM.
In the case of `CC(C)[C@H](NC(=O)[C@H](CCCNC(=N)N)NC(=O)N[C@@H](Cc1ccccc1)C(=O)O)C(=O)N[C@H](C=O)CCCNC(=N)N` [antipain, Antipain] ({Phe-CO}-Arg-Val-Arg-aldehyde), the IC50 ([1]; MDCK, Table 9; CPE method; mean ± SD, three repeats; read-out: A/Wuhan/359/1995 (H3N2) IC50) is reported as 3.16 ± 0.94 µM, the IC50 (coronavirus HCoV-229E; [7]) is reported as 1.57 ± 0.46 µM and the CC50 (in vitro [2]) is reported as > 331 µM. The CC50 (in vitro [3]) was > 165 µM.
In the case of `CC(C)C[C@H](NC(=O)[C@@H](NC(=O)N[C@@H](Cc1ccccc1)C(=O)O)[C@@H]1CCN=C(N)N1)C(=O)N[C@H](C=O)Cc1ccccc1` [chymostatin, Chymostatin], the IC50 [1, 6] is reported as 329 µM, the IC50 (coronavirus HCoV-229E; [7]) is reported as 23.7 ± 5.66 µM and the CC50 (in vitro [2]) is reported as > 329 µM. The CC50 (in vitro [3]) was > 165 µM.
